In PMC6934184, “Selective DNA-PKcs inhibition extends the therapeutic index of localized radiotherapy and chemotherapy” (The Journal of Clinical Investigation, 2019):

Biological target: T1, PDGFRA D842V (Homo sapiens, UniProt P16234, D842V)
T1 construct: purchased Thermo Fisher Scientific (Life Technologies) SelectScreen
Test: SelectScreen Z'LYTE
Assay type: biochemical
Outline: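 NU5455 was profiled across the SelectScreen Broad panel of kinase activity and binding assays. Z'LYTE reactions such as CSF1R ran at apparent Km ATP, while the Adapta CAMK1 assay used ATP listed as 10. Values are given as percent.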

T1 sequence (P16234 24-1089 D842V): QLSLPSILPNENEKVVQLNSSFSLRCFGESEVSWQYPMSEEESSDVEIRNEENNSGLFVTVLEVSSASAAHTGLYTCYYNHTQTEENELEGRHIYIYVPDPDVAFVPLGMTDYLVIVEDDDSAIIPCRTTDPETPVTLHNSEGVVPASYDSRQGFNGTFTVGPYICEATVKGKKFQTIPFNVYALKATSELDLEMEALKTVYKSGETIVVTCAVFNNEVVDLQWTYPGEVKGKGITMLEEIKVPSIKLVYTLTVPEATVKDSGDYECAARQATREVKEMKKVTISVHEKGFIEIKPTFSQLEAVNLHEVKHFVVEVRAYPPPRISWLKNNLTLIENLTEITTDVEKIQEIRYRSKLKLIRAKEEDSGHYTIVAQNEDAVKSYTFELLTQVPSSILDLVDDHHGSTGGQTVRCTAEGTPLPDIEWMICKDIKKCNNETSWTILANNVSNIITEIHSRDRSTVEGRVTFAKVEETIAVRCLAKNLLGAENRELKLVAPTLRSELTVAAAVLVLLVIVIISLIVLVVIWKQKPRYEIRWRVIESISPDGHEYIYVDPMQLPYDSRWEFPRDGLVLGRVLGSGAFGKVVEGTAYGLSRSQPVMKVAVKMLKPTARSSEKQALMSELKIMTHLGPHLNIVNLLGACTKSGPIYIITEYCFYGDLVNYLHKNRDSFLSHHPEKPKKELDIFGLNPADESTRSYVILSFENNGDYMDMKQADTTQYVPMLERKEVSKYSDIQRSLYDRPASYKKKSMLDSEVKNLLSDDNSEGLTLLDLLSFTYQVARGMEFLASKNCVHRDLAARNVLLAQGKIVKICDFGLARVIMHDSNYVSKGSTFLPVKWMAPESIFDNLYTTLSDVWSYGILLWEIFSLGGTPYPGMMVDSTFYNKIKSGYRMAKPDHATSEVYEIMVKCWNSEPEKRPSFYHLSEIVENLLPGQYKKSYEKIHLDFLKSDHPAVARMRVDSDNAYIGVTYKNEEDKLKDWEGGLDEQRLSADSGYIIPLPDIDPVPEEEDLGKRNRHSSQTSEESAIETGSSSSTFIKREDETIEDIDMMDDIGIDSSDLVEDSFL

`CN(C(=O)CN1CCOCC1)c1ccc2sc3c(-c4cccc5c(=O)cc(N6CC7CCC(C6)O7)oc45)cccc3c2c1` [NU5455] gave an inhibition at 1 µM of -5%.
